The molecules below were run against Insulin-like growth factor 1 receptor (Homo sapiens, UniProt P08069) (assay: Inhibition of IGF-induced autophosphosphorylation of GST-tagged human IGF1R expressed in SF21 cells by time resolved-fluorescent assay).
Chain of Insulin-like growth factor 1 receptor (P08069 31-736 limits assumed): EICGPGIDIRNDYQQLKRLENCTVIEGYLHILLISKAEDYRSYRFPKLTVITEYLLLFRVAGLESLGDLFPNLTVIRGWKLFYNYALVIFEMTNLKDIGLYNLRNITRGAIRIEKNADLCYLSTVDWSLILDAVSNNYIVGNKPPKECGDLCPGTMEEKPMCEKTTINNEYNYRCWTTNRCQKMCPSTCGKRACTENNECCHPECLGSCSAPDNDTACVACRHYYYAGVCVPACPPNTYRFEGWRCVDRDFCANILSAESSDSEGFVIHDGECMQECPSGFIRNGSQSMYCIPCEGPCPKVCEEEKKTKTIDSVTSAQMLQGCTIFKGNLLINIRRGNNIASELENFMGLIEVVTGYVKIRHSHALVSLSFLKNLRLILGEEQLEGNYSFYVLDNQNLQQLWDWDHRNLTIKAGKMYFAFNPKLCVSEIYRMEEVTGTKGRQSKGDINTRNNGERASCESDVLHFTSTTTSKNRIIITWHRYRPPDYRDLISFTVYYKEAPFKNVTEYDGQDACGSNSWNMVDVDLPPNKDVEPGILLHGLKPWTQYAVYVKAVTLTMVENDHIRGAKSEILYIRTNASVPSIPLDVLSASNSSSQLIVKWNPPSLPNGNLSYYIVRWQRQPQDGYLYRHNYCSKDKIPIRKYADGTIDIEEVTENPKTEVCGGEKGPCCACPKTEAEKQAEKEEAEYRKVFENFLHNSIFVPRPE
Chain of Insulin-like growth factor 1 receptor (P08069 741-1367 limits assumed): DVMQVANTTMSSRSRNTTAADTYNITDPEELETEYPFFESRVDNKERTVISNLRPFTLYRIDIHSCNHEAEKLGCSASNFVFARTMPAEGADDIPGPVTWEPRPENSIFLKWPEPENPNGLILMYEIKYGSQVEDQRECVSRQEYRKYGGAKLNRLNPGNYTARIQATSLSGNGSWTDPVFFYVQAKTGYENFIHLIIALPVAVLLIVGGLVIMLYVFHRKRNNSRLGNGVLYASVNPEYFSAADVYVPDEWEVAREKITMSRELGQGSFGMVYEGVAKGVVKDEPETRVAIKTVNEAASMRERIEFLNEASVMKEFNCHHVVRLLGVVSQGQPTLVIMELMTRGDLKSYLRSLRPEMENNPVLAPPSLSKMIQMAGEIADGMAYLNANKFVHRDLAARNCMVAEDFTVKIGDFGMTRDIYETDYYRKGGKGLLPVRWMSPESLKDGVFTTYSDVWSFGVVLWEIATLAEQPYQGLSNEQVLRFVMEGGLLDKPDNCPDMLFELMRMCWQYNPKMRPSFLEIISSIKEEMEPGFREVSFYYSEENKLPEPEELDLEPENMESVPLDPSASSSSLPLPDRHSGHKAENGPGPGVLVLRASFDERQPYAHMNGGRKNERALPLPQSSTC

IC50, > 100 µM:
Cc1c(O)n(-c2ccc(S(C)(=O)=O)cc2)c(=O)n1Cc1ccnc2ccccc12 [(S)-5-methyl-3-(4-(methylsulfonyl)phenyl)-1-(quinolin-4-ylmethyl)imidazolidine-2,4-dione], Cc1c(O)n(-c2ccc(S(=O)(=O)C(F)(F)F)cc2)c(=O)n1Cc1cncc2ccccc12 [(S)-1-(isoquinolin-4-ylmethyl)-5-methyl-3-(4-(trifluoromethylsulfonyl)phenyl)imidazolidine-2,4-dione], Cc1c(O)n(-c2ccc(S(=O)(=O)C(F)(F)F)cc2)c(=O)n1Cc1ccccc1 [(S)-1-benzyl-5-methyl-3-(4-(trifluoromethylsulfonyl)phenyl)imidazolidine-2,4-dione], Cc1c(O)n(-c2ccc(S(=O)(=O)C(F)(F)F)cc2)c(=O)n1CC1CCNCC1 [(S)-5-methyl-1-(piperidin-4-ylmethyl)-3-(4-(trifluoromethylsulfonyl)phenyl)imidazolidine-2,4-dione], Cc1c(O)n(-c2ccc(S(=O)(=O)C(F)(F)F)cc2)c(=O)n1Cc1cc[n+]([O-])c2ccccc12 [(S)-4-((5-methyl-2,4-dioxo-3-(4-(trifluoromethylsulfonyl)phenyl)imidazolidin-1-yl)methyl)quinoline 1-oxide], Cc1c(O)n(-c2ccc(S(=O)(=O)C(F)(F)F)cc2)c(=O)n1Cc1cnc[nH]1 [(S)-1-((1H-imidazol-4-yl)methyl)-5-methyl-3-(4-(trifluoromethylsulfonyl)phenyl)imidazolidine-2,4-dione], Cc1c(O)n(-c2ccc(S(=O)(=O)C(F)(F)F)cc2)c(=O)n1Cc1ccccn1 [(S)-5-methyl-1-(pyridin-2-ylmethyl)-3-(4-(trifluoromethylsulfonyl)phenyl)imidazolidine-2,4-dione], Cc1c(O)n(-c2ccc(S(=O)(=O)C(F)(F)F)cc2)c(=O)n1Cc1cc[n+]([O-])cc1 [(S)-4-((5-methyl-2,4-dioxo-3-(4-(trifluoromethylsulfonyl)phenyl)imidazolidin-1-yl)methyl)pyridine 1-oxide]
